Results reported in article PMC12135066, “Design and Preclinical Evaluation of Novel uPAR-Targeting Radiopeptides Modified with an Albumin-Binding Entity” (Molecular Pharmaceutics, 2025).

Assays:
[1] = n-Octanol/PBS distribution coefficients (logD values); conditions: n-octanol/PBS pH 7.4, pH 7.4
Protocol: The radiopeptides diluted in phosphate-buffered saline (PBS) pH 7.4 (25 μL, ∼0.5 MBq, 0.01 nmol) were added to a mixture of PBS pH 7.4 (1475 μL) and n-octanol (1500 μL). The vials were vortexed vigorously for 1 min, followed by centrifugation (560 rcf, 6 min) for phase separation. Aliquots were taken from each phase and measured in a γ-counter (1480 Wizard, PerkinElmer). The distribution coefficients were calculated as the logarithmic value of the ratio of counts per minute (cpm) measured in the n-octanol phase relative to the cpm measured in the PBS phase.
Methods: The logD value of all radiopeptides was determined in a mixture of n-octanol and phosphate
buffered saline (PBS) pH 7.4 using phase separation followed by liquid-liquid extraction.
polystyrene radioimmunoassay (RIA) tubes were prepared for each radiopeptide with 1.5 mL n-octanol
and 1.475 mL PBS pH 7.4. The RIA tubes were rigorously vortexed and subsequently let to stand so
that the phase separation could take place. The radiopeptides (50 MBq/nmol) were diluted with PBS
pH 7.4 to obtain an activity concentration of 10 MBq/0.5 mL. A volume of 25 μL of these solutions
was added to each RIA tube (25 µL, ~0.5 MBq, 0.01 nmol) followed by vortexing for 1 min.
separation was achieved by centrifugation at 560 rcf for 6 min. The activity in the n-octanol and PBS
phase, respectively, was measured in a γ-counter (Wallac Wizard 1480, PerkinElmer).
coefficients were calculated as the logarithm of the ratio of counts per minute (cpm) measured in the n-
octanol phase relative to the cpm measured in the PBS pH 7.4 phase.
as described above three independent times for each radiopeptide.

[2] = Stability of the radiopeptides in human blood plasma; conditions: human
Protocol: The radiopeptides (50 MBq/nmol) stabilized with L-ascorbic acid were diluted in mouse and human blood plasma and incubated at 37 °C. Aliquots were taken after 1, 4, and 24 h and analyzed using reversed-phase thin-layer chromatography (TLC) (Supporting Information).
aProduct peak expressed as percentage of the sum of integrated peak areas of the entire chromatogram relative to
the value obtained immediately after labeling (set as 100%), average ± standard deviation (SD) (n=3).
Stability of the Radiopeptides in Mouse and Human Blood Plasma
Purpose: The stability of the radiopeptides was assessed in mouse and human blood plasma as an
indication for their in vivo stability.
Methods: The radiopeptides (50 MBq/nmol) stabilized with L-ascorbic acid were diluted in mouse
blood plasma (Lot: 32321, Rockland Immunochemicals Inc., U.S.A.) or in human blood plasma
(Stiftung Blutspende SRK Aargau -Solothurn, Switzerland) at a concentration of 10 MBq/200 µL and
incubated at 37 °C over a 24 h time period. Control samples were prepared by diluting the radiopeptides
in saline at the same activity concentration. Aliquots of each dilution were taken after 1 h, 4 h, and 24 h
(2 µL, ~100 kBq) and investigated employing thin layer chromatography (TLC) methods on reversed-
phase TLC plates (MERCK Analytical Chromatography, TLC Silica gel 60 RP -18 F254s) as stationary
phase and a 3/7 (v/v) mixture of acetonitrile /citrate buffer (0.1 M, pH 5.5) as mobile phase. A dilution
of [177Lu]LuCl3/HCl 0.04 M (10 MBq/200 µL) was added on each TLC plate. The developed and dried
TLC plates were exposed to a phosphor screen (Super resolution screen PSR10450013, PerkinElmer)
for 1 min. The screen was read with a Cyclone Plus phosphor imager (PerkinElmer) and the peak
quantification was performed using OptiQuant Software (version 5.0).

human uPAR = molecular target: T1, human uPAR (Homo sapiens, UniProt Q03405); assay: uPAR-binding affinity (KD values), saturation experiments with HEK-uPAR cells; conditions: saturation binding on HEK-uPAR cells, on ice (4 °C) 1 h, 1–1600 nM radiopeptide, ± AE105 40 µM; γ-counter; nonlinear regression; average ± SD, n=3
T1 construct: host or cells: HEK cells (HEK-uPAR)
In short: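 HEK-uPAR cells incubated 1 h at 4 °C (on ice) with radiopeptide at 1–1600 nM final, with or without 40 μM AE105 as blocker. Cell-bound activity counted in a γ-counter after NaOH lysis; KD from nonlinear regression of specific binding (total minus unspecific), mean ± SD of n = 3.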

[3] = test system: mouse serum albumin (MSA); assay: Albumin-binding properties in mouse blood plasma (ultrafiltration assay); conditions: ultrafiltration (Amicon, 10 kDa), mouse blood plasma dilutions in PBS pH 7.4, [MSA]-to-[radiopeptide] 0.01–12500, 0.006 nmol, 37 °C 30 min, γ-counter; inverse ratio of B50, [177Lu]Lu-uPAR-01 set as 1.00; average curve of 3 experiments
Protocol: (§1) The relative albumin-binding affinities of the radiopeptides in mouse and human blood plasma were determined using an ultrafiltration assay with Amicon centrifugal filters (cutoff of 10 kDa; Merck Millipore), as previously reported (Supporting Information). A fixed amount of the respective radiopeptide (15 μL, ∼300 kBq, 0.006 nmol) was added to a defined volume (150 μL) of mouse and human blood plasma dilutions to obtain [mouse serum albumin (MSA)]-to-[radiopeptide] and [human serum albumin (HSA)]-to-[radiopeptide] molar concentration ratios of 0.01–12,500 and 0.01–20,000, respectively. The data were analyzed using a semilogarithmic Hill plot with the maximum binding set as 100% (GraphPad Prism software, version 8.3.1).
(§2) Determination of the Albumin-Binding Properties
(§3) Purpose: The radiopeptides were investigated with regard to their albumin-binding capabilities in vitro
(§4) as a measure to predict blood retention in vivo.
(§5) Methods: The relative albumin-binding affinity of the radiopeptides in mouse blood plasma (Rockland
(§6) Immunochemicals, Inc., U.S.A.) and human blood plasma (Stiftung Blutspende SRK Aargau-
(§7) Solothurn, Switzerland) were determined using an ultrafiltration method. The amount of mouse serum
(§8) albumin (MSA) and human serum albumin (HSA) in mouse and human blood plasma was defined as
(§9) 550 μM and 800 μM, respectively, based on measurements using a dry chemistry analyzer (DRI-CHEM
(§10) 4000i, FUJIFILM, Japan). A fixed amount of radiopeptide (50 MBq/nmol, ~300 kBq, 15 μL, 0.006
(§11) nmol) was added to a defined volume (150 μL) of mouse and human blood plasma and various dilutions
(§12) thereof in PBS pH 7.4, resulting in defined [MSA]-to-[radiopeptide] or [HSA]-to-[radiopeptide] molar
(§13) concentration ratios ranging from 0.01 ‒12500 and 0.01‒20000, respectively, followed by incubation of
(§14) the samples at 37 °C for 30 min. Ice-cold PBS (150 µL, pH 7.4) was added before loading the blood
(§15) plasma samples on Amicon centrifugal filters (cut -off of 10 kDa; Merck Millipore) followed by
(§16) centrifugation (14000 rcf, 30 min, 4 °C) to allow the separation of the plasma protein -bound from the
(§17) plasma-unbound (free) fractions of each sample. The inserts of the filter devices were inverted and centrifuged at 200 rcf for 3 min to recover the protein -bound radiopeptide. The activity in the filtrate
(§18) and filter unit was measured in a γ-counter (1480 Wizard, PerkinElmer) and the counts were combined
(§19) assuming that the fraction retained in the filter membrane was not bound to proteins. The protein -bound
(§20) fraction was expressed as percentage of the whole activity (i.e. plasma protein -bound activity, activity
(§21) measured in the filtrate and activity measured in the filter (set as 100%) ). The data were analyzed using
(§22) a semi-logarithmic plot assuming a maximum binding of 100%. The Hill equation was fitted to the data
(§23) points and the half -maximum binding ( B50) based on the average curve obtained from three independent
(§24) experiments (GraphPad Prism software, version 8.3 .1). The relative albumin-binding affinit ies of the
(§25) reference compound, whose relative binding affinity was set as 1.0. The results were presented as the
(§26) B50 value obtained from the average curve from 3 independent experiments.

[4] = Biodistribution studies in HEK-uPAR xenograft-bearing nude mice; conditions: female, CD1/nude, mouse, 5 MBq (0.5 nmol), total radioactivity, 5 MBq, 0.5 nmol, decay-corrected, average ± SD, n=3 animals; for tissue uptake at 4 h: 4 h p.i.; for tissue uptake at 24 h: 24 h p.i.
[5] = test system: HEK-uPAR xenograft-bearing nude mice; assay: as above; conditions: average ± SD, n=3 animals
[6] = Radiolytic stability of the radiopeptides in saline with L-ascorbic acid; conditions: 50 MBq/nmol in saline, 150 MBq/300 µL, L-ascorbic acid (3 mg, 20 µL) and NaOAc (0.5 M, 30 µL), HPLC, product peak relative to t=0 (100%), average ± SD, n=3
Protocol: The radiolytic stability of the radiopeptides (50 MBq/nmol) in saline (150 MBq/300 μL) was assessed in the absence and presence of L-ascorbic acid (3 mg added in a volume of 20 μL). After an incubation period of 1, 4, and 24 h, aliquots of the solutions were analyzed using HPLC. The integrated peak area representing the intact radiopeptide was expressed as the percentage of the sum of all peaks of the chromatogram. The final amount of intact radiopeptide was expressed as the percentage of the product peak obtained at t = 0, which was set as 100% (Supporting Information).
The radiolytic stability of [177Lu]Lu-DOTA-AE105 and the new 177Lu-labeled uPAR-targeting
radiopeptides (50 MBq/nmol) was assessed in vitro in the formulated solution . The radiopeptide s were
diluted in saline to obtain an activity concentration of 150 MBq in 300 µL in the presence of L-ascorbic
acid (3 mg, 20 µL) and NaOAc (0.5 M, 30 µL) to compensate for the acidic pH. Aliquots of the dilutions
were analyzed using HPLC after incubation periods of 1 h, 4 h and 24 h . The integrated peak area
measured for the intact radioligand peak was expressed as the percentage of the sum of the integrated
peak areas of each peak present in the chromatogram. The final amount of intact radiopeptide at t = 1 h,
4 h and 24 h was expressed by correcting the obtained percentage of the product peak to this peak
obtained at t = 0, which was set as 100%.

[7] = test system: human serum albumin (HSA); assay: Albumin-binding properties in human blood plasma (ultrafiltration assay); conditions: ultrafiltration (Amicon, 10 kDa), human blood plasma dilutions in PBS pH 7.4, [HSA]-to-[radiopeptide] 0.01–20000, 0.006 nmol, 37 °C 30 min, γ-counter; inverse ratio of B50, [177Lu]Lu-uPAR-01 set as 1.00; average curve of 3 experiments
Protocol: as §1, §2, §3, §4, §5, §6, §7, §8, §9, §10, §11, §12, §13, §14, §15, §16, §17, §18, §19, §20, §21, §22, §23, §24, §25, §26

[8] = HEK-uPAR xenograft, HEK-uPAR xgft

T1 sequence (Q03405 23-335): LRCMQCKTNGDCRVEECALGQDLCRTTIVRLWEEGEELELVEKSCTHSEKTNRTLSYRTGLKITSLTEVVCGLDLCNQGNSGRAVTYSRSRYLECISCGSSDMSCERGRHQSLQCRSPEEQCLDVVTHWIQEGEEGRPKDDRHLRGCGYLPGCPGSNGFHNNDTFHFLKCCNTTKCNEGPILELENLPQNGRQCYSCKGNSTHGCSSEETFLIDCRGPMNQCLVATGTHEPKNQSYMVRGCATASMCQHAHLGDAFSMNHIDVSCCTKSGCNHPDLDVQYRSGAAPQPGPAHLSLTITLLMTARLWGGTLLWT

CC(C)C[C@H](NC(=O)[C@H](Cc1ccc(O)cc1)NC(=O)[C@@H](CCCNC(=N)N)NC(=O)[C@@H](CO)NC(=O)[C@H](Cc1ccccc1)NC(=O)[C@H](CC1CCCCC1)NC(=O)[C@H](CC(=O)O)NC(=O)[C@H](CCCCNC(=O)CCCc1ccc(I)cc1)NC(=O)CN1CCN(CC(=O)O)CCN(CC(=O)O)CCN(CC(=O)O)CC1)C(=O)N[C@@H](Cc1c[nH]c2ccccc12)C(=O)N[C@@H](CO)C(N)=O [[^177Lu]Lu-uPAR-01, metal not drawn]
logD [1]: 0.78 ± 0.05
remaining at 1 h, 10 MBq/200 µL ([2]; blood plasma): 100%
remaining at 24 h, 10 MBq/200 µL ([2]; blood plasma): 99 ± 1%
remaining at 4 h, 10 MBq/200 µL ([2]; human blood plasma): 99 ± 2%
Kd (human uPAR): 0.048 ± 0.006 µM
Relative albumin-binding affinity, mouse blood plasma [3]: 1.00
tissue uptake at 4 h [4, 8]: 9.2 ± 0.2 %ID/g
tissue uptake at 24 h [4, 8]: 5.8 ± 0.6 %ID/g
tissue uptake at 4 h ([4]; blood): 16 ± 1 %ID/g
tissue uptake at 24 h ([4]; blood): 4.5 ± 0.2 %ID/g
tissue uptake at 4 h ([4]; bone): 1.9 ± 0.1 %ID/g
tissue uptake at 24 h ([4]; bone): 0.81 ± 0.01 %ID/g
tissue uptake at 4 h ([4]; brain): 0.32 ± 0.02 %ID/g
tissue uptake at 24 h ([4]; brain): 0.1 ± 0.01 %ID/g
tissue uptake at 4 h ([4]; heart): 5.7 ± 0.2 %ID/g
tissue uptake at 24 h ([4]; heart): 1.9 ± 0.1 %ID/g
tissue uptake at 4 h ([4]; intestines): 2.3 ± 0.3 %ID/g
tissue uptake at 24 h ([4]; intestines): 0.94 ± 0.04 %ID/g
tissue uptake at 4 h ([4]; kidneys): 5.6 ± 0.2 %ID/g
tissue uptake at 24 h ([4]; kidneys): 4.2 ± 0.8 %ID/g
tissue uptake at 4 h ([4]; liver): 6.4 ± 0.3 %ID/g
tissue uptake at 24 h ([4]; liver): 1.8 ± 0.2 %ID/g
tissue uptake at 4 h ([4]; lung): 9.4 ± 1 %ID/g
tissue uptake at 24 h ([4]; lung): 3.3 ± 0.3 %ID/g
tissue uptake at 4 h ([4]; muscle): 1.4 ± 0.2 %ID/g
tissue uptake at 24 h ([4]; muscle): 0.57 ± 0.07 %ID/g
tissue uptake at 4 h ([4]; pancreas): 2 ± 0.3 %ID/g
tissue uptake at 24 h ([4]; pancreas): 0.77 ± 0.04 %ID/g
tissue uptake at 4 h ([4]; salivary glands): 3.6 ± 0.3 %ID/g
tissue uptake at 24 h ([4]; salivary glands): 1.5 ± 0.1 %ID/g
tissue uptake at 4 h ([4]; spleen): 2.7 ± 0.1 %ID/g
tissue uptake at 24 h ([4]; spleen): 1.7 ± 0.2 %ID/g
tissue uptake at 4 h ([4]; stomach): 2 ± 0.1 %ID/g
tissue uptake at 24 h ([4]; stomach): 0.78 ± 0.08 %ID/g
Xenograft-to-blood ratio ([5]; 4 h p.i.): 0.57 ± 0.01
Xenograft-to-kidney ratio ([5]; 4 h p.i.): 1.6 ± 0.1
Xenograft-to-liver ratio ([5]; 4 h p.i.): 1.4 ± 0.1
Xenograft-to-blood ratio ([5]; 24 h p.i.): 1.3 ± 0.1
Xenograft-to-kidney ratio ([5]; 24 h p.i.): 1.4 ± 0.3
Xenograft-to-liver ratio ([5]; 24 h p.i.): 3.3 ± 0.3
radiolytic stability, % intact radiopeptide ([6]; 1 h): 100 ± 0%
radiolytic stability, % intact radiopeptide ([6]; 4 h): 100 ± 0%
radiolytic stability after 24 h, intact radiopeptide [%] ([6]; 24 h): 93 ± 4%
Relative albumin-binding affinity, human blood plasma [7]: 1.00
